This is an account of results in patent publication US20250179059A1 (The Regents of the University of California, priority 2021, published 2025).

The experiment addresses T1, human BRD4 bromodomain II (Homo sapiens, UniProt O60885).
T1 construct: human BRD4 bromodomain II [based on Genbank NM_058243, residues 349-460]; host or cells: E. coli
Kind of experiment: Bromodomain binding assay (AlphaScreen), BRD4 BDII. As to conditions: AlphaScreen assay, Table C2; read-out: BRD4 BDII IC50. The method in brief:
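AlphaScreen competition with biotinylated H4 peptide (aa 1-21, K5/K8/K12/K16Ac), using nickel-chelate acceptor and streptavidin donor beads. Targets were His6-BRD4 BDI (44-170) or BDII (349-460), with a 30 min compound preincubation over a 10-point 3-fold series. IC50 was fitted from percentage peptide binding.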

Regarding `COc1ccc(F)c(-c2cccc(-c3ccc(NC(C)=O)c(F)c3)c2O)c1` [Example 158, N-(2″,3-difluoro-2′-hydroxy-5″-methoxy-[1,1′:3′,1″-terphenyl]-4-yl)acetamide], the IC50 was over 100 nM.
Turning to `COc1cc(-c2cccc(-c3ccc(NC(C)=O)c(F)c3)c2O)ccn1` [Example 97, N-(3-Fluoro-2′-hydroxy-3′-(2-methoxypyridin-4-yl)-[1,1′-biphenyl]-4-yl)acetamide], the IC50 is over 100 nM.
Turning to `CC(=O)Nc1ccc(-c2cccc(-c3cccc(C(C)C)c3)c2O)cc1F` [Example 75, N-(3-Fluoro-2′-hydroxy-3″-isopropyl-[1,1′:3′,1″-terphenyl]-4-yl)acetamide], the IC50 is over 100 nM.
Regarding `CC(=O)Nc1ccc(-c2cccc(-c3cccc(-c4cn[nH]c4)c3)c2O)cc1F` [Example 246, N-(3-fluoro-2′-hydroxy-3″-(1H-pyrazol-4-yl)-[1,1′:3′,1″-terphenyl]-4-yl)acetamide], the IC50 was over 100 nM.
In the case of `CC(=O)Nc1ccc(-c2cccc(-c3cccc(OC4CCCC4)c3)c2O)cc1F` [Example 115, N-(3″-(Cyclopentyloxy)-3-fluoro-2′-hydroxy-[1,1′:3′,1″-terphenyl]-4-yl)acetamide], the half-maximal inhibitory concentration (IC50) is over 100 nM.
Take `CC(=O)Nc1c(Cl)cc(-c2cccc(-c3cc(N4CCNCC4)no3)c2O)cc1Cl` [Example 154, N-(3,5-dichloro-2′-hydroxy-3′-(3-(piperazin-1-yl)isoxazol-5-yl)-[1,1′-biphenyl]-4-yl)acetamide]: the IC50 was in the range of 10 to 100 nM.
With `CC(=O)Nc1ccc(-c2cccc(-c3ccc(NC(C)=O)c(Cl)c3)c2O)cc1F` [Example 46, N,N′-(3-Chloro-3″-fluoro-2′-hydroxy-[1,1′:3′,1″-terphenyl]-4,4″-diyl)diacetamide] the figure was over 100 nM; with `CC(=O)Nc1ccc(-c2cccc(-c3nnc(N4CCNCC4)[nH]3)c2O)cc1F` [Example 148, N-(3-fluoro-2′-hydroxy-3′-(5-(piperazin-1-yl)-4H-1,2,4-triazol-3-yl)-[1,1′-biphenyl]-4-yl)acetamide], over 100 nM.
With `CC(=O)Nc1ccc(-c2cccc(-c3ccc(NC(C)=O)c(N4CCNCC4)c3)c2O)cc1N1CCNCC1` [Example 185, N,N′-(2′-hydroxy-3,3″-di(piperazin-1-yl)-[1,1′:3′,1″-terphenyl]-4,4″-diyl)diacetamide] the figure was over 100 nM.
For the compound `CC(=O)Nc1ccc(-c2cccc(-c3ccc(N4CCNCC4)cc3)c2O)cc1F` [Example 108, N-(3-Fluoro-2′-hydroxy-4″-(piperazin-1-yl)-[1,1′:3′,1″-terphenyl]-4-yl)acetamide], the IC50 was over 100 nM.
Take `CC(=O)Nc1ccc(-c2cccc(-c3cc(N4CCNCC4)nc(N4CCNCC4)c3)c2O)cc1F` [Example 218, N-(3′-(2,6-di(piperazin-1-yl)pyridin-4-yl)-3-fluoro-2′-hydroxy-[1,1′-biphenyl]-4-yl)acetamide]: the IC50 lay within 1 to 10 nM.
With `CCOC(=O)c1ccc(-c2cccc(-c3ccc(NC(C)=O)c(F)c3)c2O)cc1` [Example 69, Ethyl 4″-acetamido-3″-fluoro-2′-hydroxy-[1,1′:3′,1″-terphenyl]-4-carboxylate], the IC50 is over 100 nM.
As for `O=C1OCCN1c1ccc(-c2cccc(-c3cc(N4CCNCC4)no3)c2O)cc1` [Example 37, 3-(2′-Hydroxy-3′-(3-(piperazin-1-yl)isoxazol-5-yl)-[1,1′-biphenyl]-4-yl)oxazolidin-2-one 2,2,2-trifluoroacetate], the figure is over 100 nM; as for `CC(=O)Nc1ccc(-c2cccc(-c3ccnc(C(N)=O)c3)c2O)cc1F` [Example 211, 4-(4′-acetamido-3′-fluoro-2-hydroxy-[1,1′-biphenyl]-3-yl)picolinamide], over 100 nM; as for `CC(=O)Nc1ccc(-c2cccc(-c3cc(N4CCNCC4)no3)c2O)cc1OC(C)C` [Example 20, N-(2′-Hydroxy-3-isopropoxy-3′-(3-(piperazin-1-yl)isoxazol-5-yl)-[1,1′-biphenyl]-4-yl)acetamide], 10 to 100 nM.
`O=C1CCOc2cc(-c3cccc(-c4cc(N5CCNCC5)no4)c3O)ccc2N1` [Example 62, 8-(2-Hydroxy-3-(3-(piperazin-1-yl)isoxazol-5-yl)phenyl)-2,3-dihydrobenzo[b][1,4]oxazepin-4(5H)-one]: the IC50 was over 100 nM.
With `CC(=O)Nc1ccc(-c2cccc(-c3cccc(-c4nn[nH]n4)c3)c2O)cc1F` [Example 227, N-(3-fluoro-2′-hydroxy-3″-(2H-tetrazol-5-yl)-[1,1′:3′,1″-terphenyl]-4-yl)acetamide] the figure was over 100 nM.
`COc1cc(-c2cccc(-c3ccc(NC(C)=O)c(F)c3)c2O)ccc1NC(C)=O` [Example 42, N,N′-(3-Fluoro-2′-hydroxy-3″-methoxy-[1,1′:3′,1″-terphenyl]-4,4″-diyl)diacetamide]: the IC50 lay in the range of 10 to 100 nM.
With `CC(=O)Nc1ccc(-c2cccc(-c3cc(N4CCNCC4)[nH]n3)c2O)cc1F` [Example 162, N-(3-fluoro-2′-hydroxy-3′-(5-(piperazin-1-yl)-1H-pyrazol-3-yl)-[1,1′-biphenyl]-4-yl)acetamide ditrifluoroacetate] the figure was over 100 nM; with `COc1cc(-c2cccc(-c3ccc(NC(C)=O)cc3)c2O)ccc1NC(C)=O` [Example 127, N,N′-(2′-Hydroxy-3-methoxy-[1,1′:3′,1″-terphenyl]-4,4″-diyl)diacetamide], 10 to 100 nM.
In the case of `CC(=O)Nc1ccc(-c2cccc(-c3cccc(Oc4ccccc4)c3)c2O)cc1F` [Example 91, N-(3-Fluoro-2′-hydroxy-3″-phenoxy-[1,1′:3′,1″-terphenyl]-4-yl)acetamide], the concentration for half-maximal inhibition (IC50) is over 100 nM.
With `CC(=O)Nc1ccc(-c2cccc(-c3cc(N4CCNCC4)no3)c2O)cn1` [Example 76, N-(5-(2-Hydroxy-3-(3-(piperazin-1-yl)isoxazol-5-yl)phenyl)pyridin-2-yl)acetamide 2,2,2-trifluoroacetate] the figure was over 100 nM.
With `CC(=O)Nc1ccc(-c2cccc(-c3cc(N4CCNCC4)ccc3C)c2O)cc1F` [Example 181, N-(3-fluoro-2′-hydroxy-2″-methyl-5″-(piperazin-1-yl)-[1,1′:3′,1″-terphenyl]-4-yl)acetamide] the figure was over 100 nM.
As to `COc1cc(-c2cccc(-c3cc(N4CCNCC4)no3)c2O)ccc1NC(C)=O` [Example 23, N-(2′-Hydroxy-3-methoxy-3′-(3-(piperazin-1-yl)isoxazol-5-yl)-[1,1′-biphenyl]-4-yl)acetamide 2,2,2-trifluoroacetate], the IC50 is over 100 nM.
On to `CC(=O)Nc1ccc(-c2cccc(-c3ccc(NC(C)=O)c(C(C)C)c3)c2O)cc1F` [Example 96, N,N′-(3-Fluoro-2′-hydroxy-3″-isopropyl-[1,1′:3′,1″-terphenyl]-4,4″diyl)diacetamide], for which the IC50 was over 100 nM.
Take `CC(=O)Nc1ccc(-c2cccc(-c3ccccc3)c2O)cc1` [Example 12, N-(2′-Hydroxy-[1,1′:3′,1″-terphenyl]-4-yl)acetamide]: the IC50 was over 100 nM.
As for `CC(=O)Nc1ccc(-c2cccc(-c3cccc(N4CC(CN)C4)c3)c2O)cc1F` [Example 220, N-(3″-(3-(aminomethyl)azetidin-1-yl)-3-fluoro-2′-hydroxy-[1,1′:3′,1″-terphenyl]-4-yl)acetamide], the IC50 lay within 10 to 100 nM.
In the case of `CC(=O)Nc1ccc(-c2cccc(-c3cncnc3)c2O)cc1F` [Example 103, N-(3-Fluoro-2′-hydroxy-3′-(pyrimidin-5-yl)-[1,1′-biphenyl]-4-yl)acetamide], the IC50 was in the range of 10 to 100 nM.
As for `CC(=O)Nc1ccc(-c2cccc(-c3cccc(N4CCN[C@@H](C)C4)c3)c2O)cc1F` [Example 179, (S)-N-(3-fluoro-2′-hydroxy-3″-(3-methylpiperazin-1-yl)-[1,1′:3′,1″-terphenyl]-4-yl)acetamide], the IC50 was 10 to 100 nM.
Consider `CC(=O)Nc1c(F)cc(-c2cccc(-c3cc(N4CCNCC4)no3)c2O)cc1OC1CCC1` [Example 100, N-(3-Cyclobutoxy-5-fluoro-2′-hydroxy-3′-(3-(piperazin-1-yl)isoxazol-5-yl)-[1,1′-biphenyl]-4-yl)acetamide], for which the IC50 was 1 to 10 nM.
`CC(=O)Nc1ccc(-c2cccc(-c3cccnc3)c2O)cc1F` [Example 63, N-(3-Fluoro-2′-hydroxy-3′-(pyridin-3-yl)-[1,1′-biphenyl]-4-yl)acetamide]: the concentration for half-maximal inhibition (IC50) fell in the range of 10 to 100 nM.
As for `CC(=O)Nc1ccc(-c2cccc(-c3ccc(C)cc3)c2O)cc1F` [Example 60, N-(3-Fluoro-2′-hydroxy-4″-methyl-[1,1′:3′,1″-terphenyl]-4-yl)acetamide], the IC50 was over 100 nM.
As for `COc1ccc(-c2cccc(-c3ccc(NC(C)=O)c(F)c3)c2O)cn1` [Example 98, N-(3-Fluoro-2′-hydroxy-3′-(6-methoxypyridin-3-yl)-[1,1′-biphenyl]-4-yl)acetamide], the figure is 10 to 100 nM.
For the compound `CC(=O)Nc1ccc(-c2cccc(-c3cnn(-c4ccccc4)c3)c2O)cc1F` [Example 35, N-(3-Fluoro-2′-hydroxy-3′-(1-phenyl-1H-pyrazol-4-yl)-[1,1′-biphenyl]-4-yl) acetamide], the IC50 is over 100 nM.
On to `CC(=O)Nc1ccc(-c2cccc(-c3cccc(N4CCC(CN)CC4)c3)c2O)cc1F` [Example 186, N-(3″-(4-(aminomethyl)piperidin-1-yl)-3-fluoro-2′-hydroxy-[1,1′:3′,1″-terphenyl]-4-yl)acetamide], for which the IC50 was over 100 nM.
With `CCNC(=O)c1cccc(-c2cccc(-c3ccc(NC(C)=O)c(F)c3)c2O)c1` [Example 93, 4″-Acetamido-N-ethyl-3″-fluoro-2′-hydroxy-[1,1′:3′,1″-terphenyl]-3-carboxamide] the figure was over 100 nM; with `CC(=O)Nc1ccc(-c2cccc(-c3ccc(NC(C)=O)c(F)c3)c2O)cc1` [Example 99, N,N′-(3-Fluoro-2′-hydroxy-[1,1′:3′,1″-terphenyl]-4,4″-diyl)diacetamide], 10 to 100 nM.
